# According to patent publication US20110294836A1, “ARYL GPR119 AGONISTS AND USES THEREOF” (METABOLEX, INC., priority 2008, published 2011):
# Target: T1, GPR119 (Homo sapiens, UniProt Q8TDV5)
# T1 construct: expressed in transfected cells
# T1 sequence (Q8TDV5 1-335): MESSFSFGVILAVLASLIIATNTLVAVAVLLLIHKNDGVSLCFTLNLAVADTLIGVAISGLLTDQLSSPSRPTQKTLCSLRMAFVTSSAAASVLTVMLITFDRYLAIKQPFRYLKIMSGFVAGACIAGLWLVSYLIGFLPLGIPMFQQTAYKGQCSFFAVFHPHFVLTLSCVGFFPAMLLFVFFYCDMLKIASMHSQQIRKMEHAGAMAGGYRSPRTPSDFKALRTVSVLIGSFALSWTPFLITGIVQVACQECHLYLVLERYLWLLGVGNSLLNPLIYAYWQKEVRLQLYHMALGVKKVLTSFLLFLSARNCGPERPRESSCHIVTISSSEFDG
# Experiment: Stimulation of cAMP in CHO cell line stably expressing GPR119 (HTRF cAMP assay)
# Assay type: cell-based
# Conditions: GPR119 stably expressing CHO cells, 30 minutes, relative to maximal activity (100%) of 5-Ethyl-2-{4-[4-(4-tetrazol-1-yl-phenoxymethyl)-thiazol-2-yl]-piperidin-1-yl}-pyrimidine
# Method: This assay was developed using a stable cell line expressing GPR119, generated as follows. GPR119 (co-pending, co-owned patent application U.S. Ser. No. 11/964,461) was cloned into Gateway pDEST 40vector (Invitrogen), using the Gateway cloning system (invitrogen) according to the manufacturer's instructions. A stable cell line was generated by transfecting a 10 cm plate of CHO cells (source) with Bug of this construct using Transit-CHO transfection kit (Minis). CHO cells were plated the day prior to transfection at a density of 3,000,000 cells/plate. Clones were selected using the antibiotic G418 at 500 ug/ml. 23 clones were picked and assayed for the expression of the receptor by measuring changes in intracellular cAMP levels in response to a known GPR119 agonist.
# To measure cAMP activity in response to GPR119 agonist, the clones were plated in 96 well plates at 17500 cells per well. On the day after plating, cells were incubated with the GPR119 agonist at 10 μM for 30 minutes in Ham's F12 Media (Gibco) with 0.04% DMSO. cAMP was measured using the cAMP dynamic kit from Cis Bio (Bedford, Mass.) according to the manufacturer's instructions. Briefly, cells were lysed, and cAMP levels determined by competitive immunoassay using D2 labeled cAMP, and europium cryptate tagged anti cAMP antibody. When in close proximity, the D2 and europium cryptate undergo fluorescence resonance energy transfer (FRET), which is measured as a fluorescence ratio (665 nm/620 nm). Unlabelled cAMP in the cell lysate competed with the D2 labeled cAMP for the europium crypate labeled antibody. The resulting decrease in FRET signal corresponded to intracellular cAMP levels. Fluorescence was read on a BMG Labtech PHERAstar, software version 1.50.
# The clone with the greatest response to GPR119 agonist was selected for the screening assay.
# Compounds were dissolved in 100% DMSO to a concentration of […] to provide stock solutions. To determine activity against GPR119, compounds were incubated with GPR119 stably expressing cells (described above), at 6-8 concentrations ranging from 0.00003 to 10 micromolar, in 96 well plates, in 50 ul of Ham's F12 media for 30 minutes. Cells were plated at 17500 cells per well 1 day before running the assay. All compounds were also screened against the parental CHO cells. cAMP was measured using the cAMP dynamic kit from Cis Bio (Bedford, Mass.), according to the manufacturer's instructions. Briefly, cells were lysed and cAMP levels determined by competitive immunoassay using D2 labeled cAMP, and europium cryptate tagged anti cAMP antibody. When in close proximity, the D2 and europium cryptate undergo fluorescence resonance energy transfer (FRET), which is measured as a fluorescence ratio (665 nm/620 nm). Unlabelled cAMP in the cell lysate competed with the D2 labeled cAMP for the europium crypate labeled antibody. The resulting decrease in FRET signal corresponded to intracellular cAMP levels.
# To determine percent activity for a tested compound, the FRET signal value obtained at a particular concentration are compared to the Maximal FRET signal value obtained for 5-Ethyl-2-{4-[4-(4-tetrazol-1-yl-phenoxymethyl)-thiazol-2-yl]-piperidin-1-yl}-pyrimidine. The maximal activity of 5-Ethyl-2-{4-[4-(4-tetrazol-1-yl-phenoxymethyl)-thiazol-2-yl]-piperidin-1-yl}-pyrimidine is designated as 100% activity. Typically, the concentration of 5-Ethyl-2-{4-[4-(4-tetrazol-1-yl-phenoxymethyl)-thiazol-2-yl]-piperidin-1-yl}-pyrimidine in the assay was approximately 0.1 μM. The synthesis of 5-Ethyl-2-{4-[4-(4-tetrazol-1-yl-phenoxymethyl)-thiazol-2-yl]-piperidin-1-yl}-pyrimidine is disclosed in co-owned pending U.S. patent application Ser. No. 11/964,461, herein incorporated by reference. Activities of compounds in Table 1 below are expressed as % activity at 3 μM compound compared to the maximal activity of 5-Ethyl-2-{4-[4-(4-tetrazol-1-yl-phenoxymethyl)-thiazol-2-yl]-piperidin-1-yl}-pyrimidine at 3 μM.
row,% Activity at 3 μM Compound,Compound
1,70%,"CC(C)(C)OC(=O)N1CCC(c2nccc(COc3ccc(-n4cnnn4)cc3F)n2)CC1 [Example 7, tert-Butyl 4-(4-((2-fluoro-4-(1H-tetrazol-1-yl)phenoxy)methyl)pyrimidin-2-yl)piperidine-1-carboxylate]"
2,61%,"CC(C)(C)OC(=O)N1CCC(c2cccc(OCc3ccc(S(C)(=O)=O)cc3)c2)CC1 [Example 9, tert-Butyl 4-(3-(4-(methylsulfonyl)benzyloxy)phenyl)piperidine-1-carboxylate]"
3,59%,"CCc1cnc(N2CCC(c3cccc(OCc4ccc(S(C)(=O)=O)cc4)c3)CC2)nc1 [Example 10, 5-ethyl-2-(4-(3-(4-(methylsulfonyl)benzyloxy)phenyl)piperidin-1-yl)pyrimidine]"
4,33%,"CC(C)c1noc(C(=O)N2CCC(c3cccc(COc4ccc(S(C)(=O)=O)cc4F)n3)CC2)n1 [Example 13, (4-(6-((2-fluoro-4-(methylsulfonyl)phenoxy)methyl)pyridin-2-yl)piperidin-1-yl)(3-isopropyl-1,2,4-oxadiazol-5-yl)methanone]"
5,73%,"CC(C)(C)OC(=O)N1CCC(c2cc(COc3ccc(-n4cnnn4)cc3F)ccn2)CC1 [Example 14, tert-Butyl 4-(4-((2-fluoro-4-(1H-tetrazol-1-yl)phenoxy)methyl)pyridin-2-yl)piperidine-1-carboxylate]"

# Continued, molecule first:
row,Compound,% Activity at 3 μM Compound
1,"CC(C)(C)OC(=O)N1CCC(c2cccc(COc3ccc(S(C)(=O)=O)cc3F)n2)CC1 [Example 2, tert-Butyl 4-(6-((2-fluoro-4-(methylsulfonyl)phenoxy)methyl)pyridin-2-yl)piperidine-1-carboxylate]",59%
2,"CC(C)(C)OC(=O)N1CCC(c2cccc(COc3ccc(-n4cnnn4)cc3F)n2)CC1 [Example 4, tert-Butyl 4-(6-((2-fluoro-4-(1H-tetrazol-1-yl)phenoxy)methyl)pyridin-2-yl)piperidine-1-carboxylate]",61%
3,"CCc1cnc(N2CCC(c3cccc(COc4ccc(-n5cnnn5)cc4F)n3)CC2)nc1 [Example 5, 5-ethyl-2-(4-(6-((2-fluoro-4-(1H-tetrazol-1-yl)phenoxy)methyl)pyridin-2-yl)piperidin-1-yl)pyrimidine]",73%
4,"Fc1cc(-n2cnnn2)ccc1OCc1cccc(C2CCN(c3ncc(C(F)(F)F)cn3)CC2)n1 [Example 6, 2-(4-(6-((2-fluoro-4-(1H-tetrazol-1-yl)phenoxy)methyl)pyridin-2-yl)piperidin-1-yl)-5-(trifluoromethyl)pyrimidine]",63%
